Results as given in US9505771B2, “Stable micronised monoclin form of asenapine maleate and its synthesis” (Laboratories Lesvi S.L., priority 2011, dated 2016).
Structures can show the parent of a compound that is named as a salt.

Experiments:
[1] = PXRD determination of orthorhombic form content in the micronised product; type: physicochemical; conditions: for % of orthorhombic form in the micronised product: directly after micronisation, before storage; for orthorhombic form contained in the micronised product, as determined by PXRD / polymorphic purity (monoclinic form) of the micronised product: after micronisation
Method: (§1) Powder X-Ray Diffraction (PXRD) patterns were acquired on a D8 Advance Series 2Theta/Theta powder diffraction system using CuKα-radiation in transmission geometry. The system was equipped with a VANTEC-1 single photon counting PSD, a Germanium monochromator, a ninety positions auto changer sample stage, fixed divergence slits and radial soller. Programs used: Data collection with DIFFRAC plus XRD Commander V.2.5.1 and evaluation with EVA V.12.0. The samples were prepared and placed in standard sample holders using two foils of polyacetate. Five hours scans in a range from 8° to 20° in 2θ were carried out.

[2] = Stability assays of the micronised samples (polymorphic stability on storage, PXRD); type: physicochemical; conditions: transparent and opaque vacuum containers; for % of orthorhombic form after 2 months: 25° C.-60% RH; for % of orthorhombic form after 1 months / % of orthorhombic form after 3 months: 40° C.-75% RH
Method: During the storage period of 1 month, 2 months or 3 months, a temperature of 25° C. and a relative humidity of 60%, or a temperature of 40° C. and a relative humidity of 75%, may be used. For such tests, the samples may be placed into either or both of transparent and opaque vacuum containers. […] The monoclinic and orthorhombic forms of asenapine maleate were characterised, and thus distinguished, by the powder X-ray diffraction pattern (PXRD) of the asenapine maleate, as described in EP 1710245.
as §1
Stability assays of the new stable monoclinic form of asenapine maleate obtained as described above were performed after 1 month, 2 months and 3 months. The samples were placed into two different types of containers, transparent and opaque vacuum containers. The stability tests were carried out at two different storage conditions, 25° C. and 60% relative humidity (RH), and at 40° C. and 75% RH.

| % of orthorhombic form in the micronised product [1] [%] | % of orthorhombic form after 2 months [2] [%] | % of orthorhombic form after 1 months [2] [%] | % of orthorhombic form after 3 months [2] [%] | orthorhombic form contained in the micronised product, as determined by PXRD [1] | polymorphic purity (monoclinic form) of the micronised product [1] [% by weight] | Structure (SMILES) |
| --- | --- | --- | --- | --- | --- | --- |
| <1 | 5 | 8 | 12 |  |  | CN1C[C@@H]2c3ccccc3Oc3ccc(Cl)cc3[C@H]2C1 (racemic) [Example 2.1, asenapine maleate] |
| <1 |  |  |  | less than 1 % by weight | > 99 | CN1C[C@@H]2c3ccccc3Oc3ccc(Cl)cc3[C@H]2C1 (racemic) [Example 5, asenapine maleate] |
| <1 |  |  |  | less than 1 % by weight | > 99 | CN1C[C@@H]2c3ccccc3Oc3ccc(Cl)cc3[C@H]2C1 (racemic) [Example 4, asenapine maleate] |
| <1 | 3 | 4 | 7 |  |  | CN1C[C@@H]2c3ccccc3Oc3ccc(Cl)cc3[C@H]2C1 (racemic) [Example 3.1, asenapine maleate] |
| 5 |  | 9 | 13 | about 5 % by weight |  | CN1C[C@@H]2c3ccccc3Oc3ccc(Cl)cc3[C@H]2C1 (racemic) [Example 2, asenapine maleate] |
| 3 |  | 5 | 8 | about 3 % by weight |  | CN1C[C@@H]2c3ccccc3Oc3ccc(Cl)cc3[C@H]2C1 (racemic) [Example 3, asenapine maleate] |
|  |  |  |  | less than 1 % by weight | > 99 | CN1C[C@@H]2c3ccccc3Oc3ccc(Cl)cc3[C@H]2C1 (racemic) [Example 6, asenapine maleate] |
